In brackets after ≈: the same amount, converted by molar mass.
Columns and labels:
[1] = Giant unilamellar vesicles (GUVs) disruption; details: DOPC/DOPG 7:3; 1× and 10×MIC; result in words
S. aureus MW2 = format: cell-based, Staphylococcus aureus; details: for fold increase in resistance: mutations in graS, yjbH, and manA; for fold increased resistance of CD437-resistant mutants: presumptive CD437-resistant SP1/SP2 mutants
Protocol: Development of resistant mutants by serial passage was conducted as previously described (Friedman, L. et al. Genetic changes that correlate with reduced susceptibility to daptomycin in Staphylococcus aureus. Antimicrob. Agents Chemother. 2006, 50, 2137-2145). […] The extended gradient was created by 2-fold serial dilutions with cation-adjusted Muller-Hinton media (CaMH) from three different starting concentrations: 80, 96, and 128 μg/ml. […] After incubating the plate at 37° C. for 24 h, OD600 nm was measured by a spectrophotometer (SpectraMax M2, Molecular Devices). Bacterial growth was defined as OD600 nm≥0.1. Two μl of the bacterial culture at the highest drug concentration that permitted bacterial growth was diluted 1,000-fold in CaMH, and the diluted culture was used as inoculum for the next passage. The rest of the culture was stored in 16% glycerol at −80° C.
Sequencing of PCR products were conducted by GENEWIZ (South Plainfield, N.J., USA). The passage day when the mutations occurred was identified by colony PCR using three colonies from each glycerol freezer stock, followed by sequencing of the PCR products. The passage day when the susceptibility to the retinoids changed was identified by repeating MIC determinations using overnight cultures from three colonies from each glycerol freezer stock.

human erythrocytes = test: Human blood hemolysis; format: cell-based; details: increasing concentrations; result in words
Protocol: Human blood hemolysis. Hemolytic activity of retinoids on human erythrocytes was evaluated using a previously described method with modifications (Rajamuthiah, R. et al. A defensin from the model beetle Tribolium castaneum acts synergistically with telavancin and daptomycin against multidrug resistant Staphylococcus aureus. PLoS ONE 10, e0128576 (2015)). 10% human erythrocytes were purchased from Rockland Immunochemicals (Limerick, Pa., USA). The erythrocytes were diluted to 4% with PBS, and 100 μl was added to 100 μl of two-fold serial dilutions of compounds in PBS, 0.2% DMSO (negative control), or 2% Triton-X 100 (positive control) in a 96-well plate. The 96-well plate was incubated at 37° C. for 1 h and then centrifuged at 500×g for 5 min. 100 μl of the supernatant was transferred to a fresh 96-well plate, and absorbance of supernatants was measured at 540 nm. Percent hemolysis was calculated using the following equation: (A540 nm of compound treated sample—A540nm of 0.1% DMSO treated sample)/(A540 nm of 1% Triton X-100 treated sample—A540nm of 0.1% DMSO treated sample)×100. HC50 (concentration of a compound causing 50% hemolysis) was determined using SigmaPlot 10.0 (Systat Software Inc., San Jose, Calif., USA).
In a 96 well plate, 50 μl of 2% human erythrocytes suspended in PBS was added to 50 μl of compounds serially diluted in PBS and incubated at 37° C. for 1 hour. The plate was then centrifuged at 500 G for 5 minutes and 50 μl of the supernatant from each well of the assay plate was transferred to a fresh 96 well plate. Hemolysis was confirmed by both visual observation and measuring absorbance at 540 nm. Treatment was conducted in triplicate.
2% human erythrocytes were treated with two-fold serially diluted concentration of the retinoids for 1 h at 37° C. A sample treated with 1% Triton-X 100 was used as the control for 100% hemolysis. Results are shown as means±s.d.; n=3.

hERG potassium channel = target: T1, hERG potassium channel (Homo sapiens, UniProt Q12809); test: hERG potassium channel inhibition (IonWorks HT, CHO cells); format: cell-based; details: at 25 μM
T1 construct: host or cells: Chinese hamster ovary (CHO) cells
T1 sequence (Q12809 whole entry): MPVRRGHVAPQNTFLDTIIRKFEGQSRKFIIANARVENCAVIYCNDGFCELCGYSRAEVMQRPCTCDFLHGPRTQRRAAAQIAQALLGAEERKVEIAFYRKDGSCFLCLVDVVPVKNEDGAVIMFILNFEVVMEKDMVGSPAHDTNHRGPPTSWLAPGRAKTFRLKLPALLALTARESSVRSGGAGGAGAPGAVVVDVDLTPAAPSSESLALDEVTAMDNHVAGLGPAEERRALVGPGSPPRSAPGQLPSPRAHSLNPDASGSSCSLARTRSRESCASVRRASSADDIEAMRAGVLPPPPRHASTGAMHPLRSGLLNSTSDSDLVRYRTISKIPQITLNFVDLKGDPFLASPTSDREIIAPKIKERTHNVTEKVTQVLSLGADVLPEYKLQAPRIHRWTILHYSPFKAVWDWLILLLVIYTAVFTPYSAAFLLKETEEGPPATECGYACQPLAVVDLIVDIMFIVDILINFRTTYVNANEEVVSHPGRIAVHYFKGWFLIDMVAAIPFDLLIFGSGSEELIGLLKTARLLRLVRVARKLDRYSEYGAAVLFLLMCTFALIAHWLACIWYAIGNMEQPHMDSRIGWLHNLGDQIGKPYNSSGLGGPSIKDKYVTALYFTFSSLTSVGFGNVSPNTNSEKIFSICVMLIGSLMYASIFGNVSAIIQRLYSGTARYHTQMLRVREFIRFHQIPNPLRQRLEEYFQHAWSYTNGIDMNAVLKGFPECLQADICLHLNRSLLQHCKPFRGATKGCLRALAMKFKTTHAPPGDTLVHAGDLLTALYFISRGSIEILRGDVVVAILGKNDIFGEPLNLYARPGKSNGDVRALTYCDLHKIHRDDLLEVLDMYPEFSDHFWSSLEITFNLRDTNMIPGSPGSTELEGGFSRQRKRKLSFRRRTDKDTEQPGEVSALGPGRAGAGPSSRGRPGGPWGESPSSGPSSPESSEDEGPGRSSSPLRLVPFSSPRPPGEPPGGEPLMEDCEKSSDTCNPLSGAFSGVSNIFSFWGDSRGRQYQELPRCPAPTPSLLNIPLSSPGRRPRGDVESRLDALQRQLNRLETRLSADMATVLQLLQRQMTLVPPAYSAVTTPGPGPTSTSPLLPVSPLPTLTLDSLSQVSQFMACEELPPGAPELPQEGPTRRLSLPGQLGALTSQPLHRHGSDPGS
Protocol: Evaluation of human ether-a-go-go-related gene (hERG) potassium channel inhibition potential. […] Electrophysiology measurement was conducted using an IonWorks™ HT instrument (Molecular Devices Corporation, Sunnyvale, Calif., USA) and 384-well planar PatChPlate™ (Molecular Devices Corporation). Briefly, Chinese hamster ovary (CHO) cells expressing the hERG potassium channel were dispensed into 384-well planar arrays, and hERG tail currents were measured by whole-cell voltage clamping. A range of concentrations (0.008 μM to 25 μM) of each retinoid were then added to the cells, and a second recording of the hERG current was made. The percent change in the hERG current was calculated.

[2] = system: C. elegans infected with MRSA strain MW2; format: in vivo; details: for C. elegans animals surviving MRSA infection: concentrations above the MIC
Protocol: The C. elegans-MRSA liquid infection assay has been described (Rajamuthiah et al. Plos One. 2014; 9(2):e89189). In brief, 4,500 glp-4 (bn2); sek-1(km4) L1 hatchlings were grown on SK-HB101 agar plates for 52 hours at the restrictive temperature of 25° C. until animals became sterile young adults and later harvested with M9 buffer. S. aureus MW2 was grown overnight at 37° C. in TSB, first under aerobic conditions and later shifted to anaerobic growth conditions at 37° C. The infection assay was performed in standard 384-well assay plates, in the presence of the compound being tested or 1% dimethyl sulfoxide (DMSO) as a control. Bacteria were added to the wells at a final OD600 of 0.06, followed by the use of a Complex Object Parametric Analyzer and Sorter (COPAS) large particle sorter (Union Biometrica, Holliston, Mass., USA) to transfer 15 adult worms to each well of an assay plate. After 5 days of incubation in a humidified chamber at 25° C., the bacteria and other debris were washed from the wells with a microplate washer and the worms were stained with the vital dye Sytox Orange (Life Technologies). After overnight incubation at 25° C. in a humidified chamber, the plates were imaged using an Image Xpress Micro automated microscope (Molecular Devices, Sunnyvale, Calif., USA), capturing both transmitted light and TRITC (535 nm excitation, 610 nm emission) fluorescent images with a 2× objective. The images from the infection assay were processed using the open source image analysis software CellProfiler and analysis modules as described previously. The ratio of Sytox worm area to bright field worm area, and the resultant percentage survival data, is calculated by the software for each well of the assay plates. The assay was performed in triplicate comparing the survival of worms at various concentrations of drugs.
Killing assays were carried out as described in Methods using S. aureus MRSA MW2 and 10 μg/ml retinoids, 10 μg/ml vancomycin (positive control), or 1% DMSO (negative control) at 25° C. for 5 days. Data are representative of three independent experiments. (B) Chemical structures of synthetic retinoids. (C) Growth of MRSA strain MW2 exposed to the indicated concentrations of compounds was quantified by measuring OD600 after 18 h in tryptic soy broth (TSB). (D) C. elegans infected with MRSA strain MW2 was treated with indicated concentrations of compounds. Percent survival of C. elegans was normalized to C. elegans treated with DMSO. (E-F) MRSA persisters prepared as described in Methods were treated with the indicated concentrations of each retinoid. Viability was measured by serial dilution and plating on TSA plates. The data points on the x-axis are below the level of detection (2×10^2 CFU/ml). (E,F) Results are shown as means±s.d.; n=3.

E. faecalis = test: MIC, broth microdilution; format: cell-based, Enterococcus faecalis; details: for MIC: Enterococcus faecalis, E. faecalis, (range given for E. faecium and E. faecalis); for susceptibility of E. faecalis: result in words
Protocol: To test the bacterial MICs for compounds described herein, the total volume in each well was 100 μl of test compounds and bacterial cells in MH broth. Two-fold serial dilutions were carried out to get compounds in the concentration range 0.0625-64 μg/ml. The bacterial concentration was adjusted to an initial OD600 of 0.03. After incubation at 35° C. for 18 hrs, the absorbance was measured at 595 nm in accordance with CLSI document M07-A8. The MICs of antibiotics were determined by the standard microdilution method recommended by the Clinical and Laboratory Standards Institute.

S. aureus = test: Disc clearing assay; format: cell-based, Staphylococcus aureus; details: result in words
Protocol: Disc clearing assay: The disc diffusion test was performed on Mueller Hinton (MH) agar plates for bacterial cultures and yeast extract, peptone, dextrose (YPD) for fungal cultures. The assay was repeated 3 times. Discs were soaked in 10 μl of either DMSO or 10 mg/ml compound stock solution and air-dried. Three hundred microliters of an overnight culture of bacteria or fungi were spread on plates. After completely drying the agar plate in a laminar flow hood, DMSO or compound impregnated discs were overlaid on the plate and incubated at 35° C. for 18 hrs.
The disc diffusion test was carried out in triplicate on cation-adjusted Miller-Hinton agar. 6 mm discs were impregnated with 50 μg of compounds and air-dried. Three hundred microliters of an overnight S. aureus MW2 culture was spread on an agar plate and air-dried. The antimicrobial discs were overlaid on the plate and incubated at 37° C. for 20 hrs.

Structure (SMILES): O=C(O)/C=C/c1ccc(-c2ccc(O)c(C34CC5CC(CC(C5)C3)C4)c2)cc1 [Adarotene, (2E)-3-(4′-Hydroxy-3′-tricyclo[3.3.1.13,7]dec-1-yl[1,1′-biphenyl]-4-yl)-2-propenoic acid]
- integrity of giant unilamellar vesicles (GUVs) [1]: disrupt the integrity
- fold increase in resistance (S. aureus MW2): 1.5 fold
- fold increased resistance of CD437-resistant mutants (S. aureus MW2): 2 fold
- toxicity (hemolysis) to erythrocytes (human erythrocytes): not toxic
- inhibition of hERG potassium channels (hERG potassium channel): did not inhibit
- rescue of C. elegans from MRSA infection ([2]; result in words): rescued

Structure (SMILES): O=C(O)c1ccc2cc(-c3ccc(O)c(C45CC6CC(CC(C6)C4)C5)c3)ccc2c1 [CD437, 6-(4-hydroxy-3-tricyclo[3.3.1.13,7]dec-1-ylphenyl)-2-naphthalenecarboxylic acid]
- MIC (E. faecalis): 2 to 4 µg/mL (≈ 5.02 to 10 µM)
- susceptibility of E. faecalis (E. faecalis): susceptible
- zone of inhibition, S. aureus (S. aureus): inhibits the growth
- C. elegans animals surviving MRSA infection [2]: 100%

Structure (SMILES): O=C(O)c1ccc(-c2ccc3cc(O)c(C45CC6CC(CC(C6)C4)C5)cc3c2)cc1 [CD1530, 4-(6-hydroxy-7-tricyclo[3.3.1.13,7]dec-1-yl-2-naphthalenyl)-benzoic acid]
- MIC (E. faecalis): 2 to 4 µg/mL (≈ 5.02 to 10 µM)
- susceptibility of E. faecalis (E. faecalis): susceptible
- integrity of giant unilamellar vesicles (GUVs) [1]: disrupt the integrity
- fold increase in resistance (S. aureus MW2): 1.5 fold
- fold increased resistance of CD437-resistant mutants (S. aureus MW2): 2 fold
- toxicity (hemolysis) to erythrocytes (human erythrocytes): not toxic
- inhibition of hERG potassium channels (hERG potassium channel): did not inhibit
- C. elegans animals surviving MRSA infection [2]: 100%
- toxicity to C. elegans ([2]; up to 50 μg/ml): nontoxic
